In patent publication US12410208B2, “(2-acetamidyl)thio-beta-D-galactopyranoside derivatives” (Idorsia Pharmaceuticals Ltd, priority 2020, dated 2025):
Where two headings read alike, the source gives them in different places.

How the values were obtained:
human Gal-1 (hGal-1) = human Gal-1 (hGal-1) (Homo sapiens, UniProt P09382); test: Competitive binding assay: biotinylated hGal-1 binding to microplate-adsorbed asialofetuin (ASF), spectrophotometric; conditions: hGal-1 binding to asialofetuin; Table 15; R and S epimers of selected Examples also listed; read-out: IC50 (Galectin-1 inhibition)
Summary of the method: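 Biotinylated hGal-1 (300-1000 ng/mL) incubated with compound on asialofetuin-coated plates 3 hours at 4 °C, washed, then streptavidin-peroxidase (80 ng/mL) 1 hour at 4 °C. ABTS substrate read spectrophotometrically; IC50 reported as mean of several measurements.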

[1] = target: biotinylated human Gal-3 (hGal-3) (Homo sapiens, UniProt P17931); test: Competitive binding assay: biotinylated hGal-3 binding to microplate-adsorbed asialofetuin (ASF), spectrophotometric
Summary of the method: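 Competitive binding of biotinylated hGal-3 to plate-adsorbed asialofetuin was measured with serially diluted compounds over 3 h at 4° C. Bound protein was detected with streptavidin-peroxidase and ABTS substrate by absorbance. IC50 values are means of several measurements.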

[2] = Gal-3 inhibition, Table 5, read-out: IC50
[3] = Gal-3 inhibition, Table 4, read-out: IC50
[4] = Table 12, hGal-3, read-out: IC50 (Gal-3 inhibition)
[5] = Table 8, hGal-3, read-out: IC50 (Gal-3 inhibition)

Sequence of human Gal-1 (hGal-1) (P09382 whole entry): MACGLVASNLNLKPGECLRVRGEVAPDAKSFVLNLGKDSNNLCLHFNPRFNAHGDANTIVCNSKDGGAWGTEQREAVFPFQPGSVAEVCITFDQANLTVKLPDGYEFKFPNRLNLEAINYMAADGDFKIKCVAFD
Sequence of biotinylated human Gal-3 (hGal-3) (P17931 whole entry): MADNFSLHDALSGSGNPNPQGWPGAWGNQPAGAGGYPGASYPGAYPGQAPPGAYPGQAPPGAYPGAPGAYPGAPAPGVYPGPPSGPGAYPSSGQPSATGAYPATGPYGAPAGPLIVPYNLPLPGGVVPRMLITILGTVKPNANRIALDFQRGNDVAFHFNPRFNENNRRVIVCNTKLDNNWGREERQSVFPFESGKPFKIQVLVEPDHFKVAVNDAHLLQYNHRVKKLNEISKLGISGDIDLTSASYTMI

| SMILES | IC50 (human Gal-1 (hGal-1)) [nM] | further results |
| --- | --- | --- |
| O=C([C@@H](S[C@@H]1O[C@H](CO)[C@H](O)[C@H](n2cc(-c3cc(F)c(F)c(F)c3)nn2)[C@H]1O)C1(O)CCOCC1)N1CCc2ccccc21 [Example 2.41.209S., (S)-2-(((2S,3R,4S,5R,6R)-3,5-Dihydroxy-6-(hydroxymethyl)-4-(4-(3,4,5-trifluorophenyl)-1H-1,2,3-triazol-1-yl)tetrahydro-2H-pyran-2-yl)thio)-2-(4-hydroxytetrahydro-2H-pyran-4-yl)-1-(indolin-1-yl)ethan-1-one] | 170 | IC50 [1, 3]: 100 nM |
| CCN(C)C(=O)C(S[C@@H]1O[C@H](CO)[C@H](O)[C@H](n2cc(-c3ccc(Br)c(F)c3)nn2)[C@H]1O)C1(O)CCOCC1 (stereo partly drawn) [Example 12.41.203., 2-(((2S,3R,4S,5R,6R)-4-(4-(4-Bromo-3-fluorophenyl)-1H-1,2,3-triazol-1-yl)-3,5-dihydroxy-6-(hydroxymethyl)tetrahydro-2H-pyran-2-yl)thio)-N-ethyl-2-(4-hydroxytetrahydro-2H-pyran-4-yl)-N-methylacetamide] | 360 | IC50 ([1]; Table 11, hGal-3, read-out: IC50 (Gal-3 inhibition)): 40 nM |
| CN(CC1CC1)C(=O)C(S[C@@H]1O[C@H](CO)[C@H](O)[C@H](n2cc(-c3cc(F)c(F)c(F)c3)nn2)[C@H]1O)C1(O)CCC1 (stereo partly drawn) [Example 2.34.218., N-(Cyclopropylmethyl)-2-(((2S,3R,4S,5R,6R)-3,5-dihydroxy-6-(hydroxymethyl)-4-(4-(3,4,5-trifluorophenyl)-1H-1,2,3-triazol-1-yl)tetrahydro-2H-pyran-2-yl)thio)-2-(1-hydroxycyclobutyl)-N-methylacetamide] | 220 | IC50 [1, 2]: 310 nM |
| CN(CC1CC1)C(=O)[C@@H](S[C@@H]1O[C@H](CO)[C@H](O)[C@H](n2cc(-c3cc(F)c(F)c(F)c3)nn2)[C@H]1O)C1(O)CCC1 [Example 2.34.218S., (S)-N-(Cyclopropylmethyl)-2-(((2S,3R,4S,5R,6R)-3,5-dihydroxy-6-(hydroxymethyl)-4-(4-(3,4,5-trifluorophenyl)-1H-1,2,3-triazol-1-yl)tetrahydro-2H-pyran-2-yl)thio)-2-(1-hydroxycyclobutyl)-N-methylacetamide] | 70 | IC50 [1, 2]: 60 nM |
| CN(Cc1cn(C)cn1)C(=O)C(S[C@@H]1O[C@H](CO)[C@H](O)[C@H](n2cc(-c3cc(F)c(F)c(F)c3)nn2)[C@H]1O)C1(O)CCOCC1 (stereo partly drawn) [Example 2.41.215., 2-(((2S,3R,4S,5R,6R)-3,5-Dihydroxy-6-(hydroxymethyl)-4-(4-(3,4,5-trifluorophenyl)-1H-1,2,3-triazol-1-yl)tetrahydro-2H-pyran-2-yl)thio)-2-(4-hydroxytetrahydro-2H-pyran-4-yl)-N-methyl-N-((1-methyl-1H-imidazol-4-yl)methyl)acetamide] | 370 | IC50 [1, 3]: 60 nM |
| CCN(C)C(=O)[C@@H](S[C@@H]1O[C@H](CO)[C@H](O)[C@H](n2cc(-c3cc(F)c(F)c(F)c3)nn2)[C@H]1O)C1CCOCC1 [Example 2.56.203S., (S)-2-(((2S,3R,4S,5R,6R)-3,5-dihydroxy-6-(hydroxymethyl)-4-(4-(3,4,5-trifluorophenyl)-1H-1,2,3-triazol-1-yl)tetrahydro-2H-pyran-2-yl)thio)-N-ethyl-N-methyl-2-(tetrahydro-2H-pyran-4-yl)acetamide, reference compound] | 36000 | IC50 ([1]; Gal-3 inhibition, Table 1 (Reference Examples), read-out: IC50): 6860 nM |
| CN(C(=O)C(S[C@@H]1O[C@H](CO)[C@H](O)[C@H](n2cc(-c3cc(F)c(F)c(F)c3)nn2)[C@H]1O)C1(O)CCCC1)C1CCC1 (stereo partly drawn) [Example 2.38.220., N-Cyclobutyl-2-(((2S,3R,4S,5R,6R)-3,5-dihydroxy-6-(hydroxymethyl)-4-(4-(3,4,5-trifluorophenyl)-1H-1,2,3-triazol-1-yl)tetrahydro-2H-pyran-2-yl)thio)-2-(1-hydroxycyclopentyl)-N-methylacetamide] | 20 | IC50 [1, 2]: 30 nM |
| CCN(C)C(=O)[C@@H](S[C@@H]1O[C@H](CO)[C@H](O)[C@H](n2cc(-c3cc(F)c(F)c(F)c3)nn2)[C@H]1OC)C1(O)CCN(C(=O)NC2CC2)CC1 [Example 2.49.226S.I., N-Cyclopropyl-4-((S)-2-(ethyl(methyl)amino)-1-(((2S,3R,4S,5R,6R)-5-hydroxy-6-(hydroxymethyl)-3-methoxy-4-(4-(3,4,5-trifluorophenyl)-1H-1,2,3-triazol-1-yl)tetrahydro-2H-pyran-2-yl)thio)-2-oxoethyl)-4-hydroxypiperidine-1-carboxamide] | 1700 | IC50 [1, 5]: 60 nM |
| CN(C(=O)C(S[C@@H]1O[C@H](CO)[C@H](O)[C@H](n2cc(-c3cc(F)c(F)c(F)c3)nn2)[C@H]1O)C1(O)CCOCC1)c1ccccc1 (stereo partly drawn) [Example 2.41.231.] | 80 | IC50 ([1]; Table 9, hGal-3, read-out: IC50 (Gal-3 inhibition)): 110 nM |
| O=C(C(S[C@@H]1O[C@H](CO)[C@H](O)[C@H](n2cc(-c3cc(F)c(F)c(F)c3)nn2)[C@H]1O)C1(O)CC(F)(F)C1)N1CCC1 (stereo partly drawn) [Example 2.33.206., 1-(Azetidin-1-yl)-2-(3,3-difluoro-1-hydroxycyclobutyl)-2-(((2S,3R,4S,5R,6R)-3,5-dihydroxy-6-(hydroxymethyl)-4-(4-(3,4,5-trifluorophenyl)-1H-1,2,3-triazol-1-yl)tetrahydro-2H-pyran-2-yl)thio)ethan-1-one] | 1710 | IC50 [1, 2]: 580 nM |
| CCN(C)C(=O)[C@@H](S[C@@H]1O[C@H](CO)[C@H](O)[C@H](n2cc(-c3cc(F)c(F)c(F)c3)nn2)[C@H]1O)C1(O)CCN(C(=O)OC)CC1 [Example 2.50.203S., (S)-Methyl 4-(1-(((2S,3R,4S,5R,6R)-3,5-dihydroxy-6-(hydroxymethyl)-4-(4-(3,4,5-trifluorophenyl)-1H-1,2,3-triazol-1-yl)tetrahydro-2H-pyran-2-yl)thio)-2-(ethyl(methyl)amino)-2-oxoethyl)-4-hydroxypiperidine-1-carboxylate] | 60 | IC50 [1, 5]: 40 nM |

Second part, led by results:

| IC50 (human Gal-1 (hGal-1)) [nM] | SMILES | further results |
| --- | --- | --- |
| 230 | CN(C)C(=O)C(S[C@@H]1O[C@H](CO)[C@H](O)[C@H](n2cc(-c3cc(F)c(F)c(F)c3)nn2)[C@H]1O)C1(O)CCC(F)(F)CC1 (mixture of isomers) [Example 2.44.201., 2-(4,4-Difluoro-1-hydroxycyclohexyl)-2-(((2S,3R,4S,5R,6R)-3,5-dihydroxy-6-(hydroxymethyl)-4-(4-(3,4,5-trifluorophenyl)-1H-1,2,3-triazol-1-yl)tetrahydro-2H-pyran-2-yl)thio)-N,N-dimethylacetamide] | IC50 [1, 2]: 100 nM |
| 39600 | CO[C@@H]1[C@@H](n2cc(-c3cc(F)c(F)c(F)c3)nn2)[C@@H](O)[C@@H](CO)O[C@H]1S[C@@H](C(=O)N1CCC(F)(F)CC1)C1(O)CCC2(CCOCC2)CC1 [Example 2.72.226R.I., (R)-1-(4,4-Difluoropiperidin-1-yl)-2-(((2S,3R,4S,5R,6R)-5-hydroxy-6-(hydroxymethyl)-3-methoxy-4-(4-(3,4,5-trifluorophenyl)-1H-1,2,3-triazol-1-yl)tetrahydro-2H-pyran-2-yl)thio)-2-(9-hydroxy-3-oxaspiro[5.5]undecan-9-yl)ethan-1-one] | IC50 ([1]; Table 13, hGal-3, read-out: IC50 (Gal-3 inhibition)): 14900 nM |
| 250 | CO[C@@H]1[C@@H](n2cc(-c3cc(F)c(F)c(F)c3)nn2)[C@@H](O)[C@@H](CO)O[C@H]1SC(C(=O)N(C)C)C1(O)CCC(F)(F)CC1 (stereo partly drawn) [Example 2.44.201.I., 2-(4,4-Difluoro-1-hydroxycyclohexyl)-2-(((2S,3R,4S,5R,6R)-5-hydroxy-6-(hydroxymethyl)-3-methoxy-4-(4-(3,4,5-trifluorophenyl)-1H-1,2,3-triazol-1-yl)tetrahydro-2H-pyran-2-yl)thio)-N,N-dimethylacetamide] | IC50 [1, 4]: 60 nM |
| 170 | CO[C@@H]1[C@@H](n2cc(-c3cc(F)c(F)c(F)c3)nn2)[C@@H](O)[C@@H](CO)O[C@H]1SC(C(=O)N(C)C1COC1)C1(O)CCC(F)(F)CC1 (stereo partly drawn) [Example 2.44.243.I., 2-(4,4-Difluoro-1-hydroxycyclohexyl)-2-(((2S,3R,4S,5R,6R)-5-hydroxy-6-(hydroxymethyl)-3-methoxy-4-(4-(3,4,5-trifluorophenyl)-1H-1,2,3-triazol-1-yl)tetrahydro-2H-pyran-2-yl)thio)-N-methyl-N-(oxetan-3-yl)acetamide] | IC50 [1, 4]: 110 nM |
| 220 | CO[C@@H]1[C@@H](n2cc(-c3cc(F)c(F)c(F)c3)nn2)[C@@H](O)[C@@H](CO)O[C@H]1SC(C(=O)N(C)CC(C)(C)F)C1(O)CCC(F)(F)CC1 (stereo partly drawn) [Example 2.44.222.1., 2-(4,4-Difluoro-1-hydroxycyclohexyl)-N-(2-fluoro-2-methylpropyl)-2-(((2S,3R,4S,5R,6R)-5-hydroxy-6-(hydroxymethyl)-3-methoxy-4-(4-(3,4,5-trifluorophenyl)-1H-1,2,3-triazol-1-yl)tetrahydro-2H-pyran-2-yl)thio)-N-methylacetamide] | IC50 [1, 4]: 50 nM |
| 20 | CCN(CC1CCOCC1)C(=O)C(S[C@@H]1O[C@H](CO)[C@H](O)[C@H](n2cc(-c3cc(F)c(F)c(F)c3)nn2)[C@H]1OC)C1(O)CCC(F)(F)CC1 (stereo partly drawn) [Example 2.44.214.I.] | IC50 ([1]; Table 10, hGal-3, read-out: IC50 (Gal-3 inhibition)): 30 nM |
| 30 | CO[C@@H]1[C@@H](n2cc(-c3cc(F)c(F)c(F)c3)nn2)[C@@H](O)[C@@H](CO)O[C@H]1SC(C(=O)N(C)C12CC(C1)C2)C1(O)CCC(F)(F)CC1 (stereo partly drawn) [Example 2.44.247.I., N-(Bicyclo[1.1.1]pentan-1-yl)-2-(4,4-difluoro-1-hydroxycyclohexyl)-2-(((2S,3R,4S,5R,6R)-5-hydroxy-6-(hydroxymethyl)-3-methoxy-4-(4-(3,4,5-trifluorophenyl)-1H-1,2,3-triazol-1-yl)tetrahydro-2H-pyran-2-yl)thio)-N-methylacetamide] | IC50 [1, 4]: 50 nM |
